Like-named read-outs stand apart in the source and are kept apart here.
Columns and labels:
ALDH1A1 = target: T1, ALDH1A1 (Homo sapiens, UniProt P00352); experiment: ALDH isoform-specific enzyme assay (NADH absorbance 340 nm); assay type: biochemical; settings: Study 1; read-out: IC50s ALDH1A1
T1 construct: purchased R & D Systems, Inc, Minneapolis, Minn., USA
T1 sequence (P00352 1-501): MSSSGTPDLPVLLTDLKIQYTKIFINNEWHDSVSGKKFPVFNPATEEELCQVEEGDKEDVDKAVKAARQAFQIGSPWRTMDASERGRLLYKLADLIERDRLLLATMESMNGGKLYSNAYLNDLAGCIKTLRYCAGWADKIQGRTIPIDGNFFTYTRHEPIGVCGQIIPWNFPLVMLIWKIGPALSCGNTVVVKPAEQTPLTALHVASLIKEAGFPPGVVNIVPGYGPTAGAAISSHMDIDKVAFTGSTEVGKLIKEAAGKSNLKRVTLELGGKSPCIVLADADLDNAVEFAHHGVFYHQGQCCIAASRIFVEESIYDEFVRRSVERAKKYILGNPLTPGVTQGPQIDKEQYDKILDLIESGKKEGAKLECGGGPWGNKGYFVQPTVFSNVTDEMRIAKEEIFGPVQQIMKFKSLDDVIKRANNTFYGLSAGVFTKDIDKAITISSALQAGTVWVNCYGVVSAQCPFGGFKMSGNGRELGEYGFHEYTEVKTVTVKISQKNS

ALDH2 = target: T2, ALDH2 (Homo sapiens, UniProt P05091); experiment: as above; assay type: biochemical; settings: Study 1; read-out: IC50s ALDH2
T2 construct: purchased R & D Systems, Inc, Minneapolis, Minn., USA
T2 sequence (P05091 18-517): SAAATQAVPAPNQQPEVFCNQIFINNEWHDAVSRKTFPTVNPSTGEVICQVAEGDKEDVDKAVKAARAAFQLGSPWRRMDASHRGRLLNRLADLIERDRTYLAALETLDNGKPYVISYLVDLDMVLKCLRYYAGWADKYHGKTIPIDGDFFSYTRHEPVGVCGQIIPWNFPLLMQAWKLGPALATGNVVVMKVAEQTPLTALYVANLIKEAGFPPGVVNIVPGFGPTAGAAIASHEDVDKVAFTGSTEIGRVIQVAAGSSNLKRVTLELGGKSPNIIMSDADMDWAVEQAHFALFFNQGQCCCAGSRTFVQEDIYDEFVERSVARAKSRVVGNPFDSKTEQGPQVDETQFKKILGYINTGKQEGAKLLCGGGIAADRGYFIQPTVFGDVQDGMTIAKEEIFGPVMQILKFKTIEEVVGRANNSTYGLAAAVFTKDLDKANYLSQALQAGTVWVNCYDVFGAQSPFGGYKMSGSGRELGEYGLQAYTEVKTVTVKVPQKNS

ALDH3A1 = target: T3, ALDH3A1 (Homo sapiens, UniProt P30838); experiment: as above; assay type: biochemical
T3 construct: purchased R & D Systems, Inc, Minneapolis, Minn., USA
T3 sequence (P30838 1-453): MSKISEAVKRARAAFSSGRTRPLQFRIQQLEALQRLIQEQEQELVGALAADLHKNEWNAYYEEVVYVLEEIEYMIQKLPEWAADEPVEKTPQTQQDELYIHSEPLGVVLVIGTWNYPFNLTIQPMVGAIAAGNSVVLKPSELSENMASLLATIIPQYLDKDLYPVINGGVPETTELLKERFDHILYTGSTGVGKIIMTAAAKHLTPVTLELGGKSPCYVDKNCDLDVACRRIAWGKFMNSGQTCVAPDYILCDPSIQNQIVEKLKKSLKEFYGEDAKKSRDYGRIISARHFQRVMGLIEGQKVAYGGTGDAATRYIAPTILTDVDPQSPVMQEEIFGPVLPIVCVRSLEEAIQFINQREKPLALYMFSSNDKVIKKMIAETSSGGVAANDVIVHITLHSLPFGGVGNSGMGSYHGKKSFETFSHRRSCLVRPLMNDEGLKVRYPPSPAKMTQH

[1] = tested on: total cellular ALDH activity, 1205 Lu cell lysates; experiment: Total cellular ALDH activity in cell lysates; assay type: biochemical, human; settings: 1 uM inhibitor, 15 minutes
Text: (§1) The ALDHs reduce ROS, lipid peroxidation and toxic aldehyde accumulation, the latter of which can lead to cell damage and apoptosis as shown in FIG. 6A. Thus, inhibition of total cellular ALDH activity can increase toxic aldehydes, oxidative damage and apoptosis.

[2] = tested on: total cellular ALDH activity, UACC 903 cell lysates; experiment: Total cellular ALDH activity in cell lysates; assay type: biochemical, human; settings: 1 uM inhibitor, 15 minutes
Text: as §1

[3] = Toxicity study, 14 days i.p.; assay type: in vivo, Swiss-Webster mice; settings: 5 mg/kg/day i.p. for 14 days, vs DMSO
Experimental: To determine the toxicity of 3(h-l), compounds were injected i.p. into Swiss-Webster mice once daily for 14 days (Id.). Animals were monitored for changes in body weight, behavior and physical distress compared to DMSO control.

HCT116 and HT29 cells = experiment: ROS assay (DCFDA), Study 2, with or without NAC; assay type: cell-based, human
HCT116 cells [4] = experiment: Cell survival MTS assay with or without NAC; assay type: cell-based, human
Experimental: (§2) FIGS. 30A-30F. […] ROS levels were measured using DCFDA dye and compared to DMSO control. Malondialdehyde (MDA) levels were measured in colon cancer cell line HCT116 using thiobarbituric acid and compared to DMSO control (FIG. 30C). Cell survival assay was performed by MTS assay (FIG. 30D), apoptosis by Annexin-V/7-AAD (FIG. 30E) and cell cycle by propidium iodide staining in colon cancer cell line HCT116 (FIG. 30F).
(§3) Further, the effect of the addition of NAC on the antiproliferative and apoptotic activity of ALDH inhibitors was also evaluated.

HCT116 cells [5] = experiment: Apoptosis by Annexin-V/7-AAD with or without NAC; assay type: cell-based, human; set-up: dose or concentration left out as unconfirmed; settings: vs DMSO or 3a
Experimental: as §2, §3

HCT116 cells [6] = experiment: Cell cycle by propidium iodide staining with or without NAC; assay type: cell-based, human
Experimental: as §2, §3

UACC 903 cells = experiment: Cell viability MTS assay, UACC 903; assay type: cell-based, human; settings: 100 μM, 72 hours
[7] = Study 1, read-out: IC50s ALDH3A1

IC50 (ALDH1A1) [µM] | IC50 (ALDH2) [µM] | Structure (SMILES) | IC50 (ALDH3A1; [7]) [µM] | reduction of total cellular ALDH activity, 1205 Lu [1] | reduction of total cellular ALDH activity, UACC 903 [2] | further results
15.6 | 169 | O=C1Nc2ccccc2C1=O [Isatin] | 5.05 | ineffective | ineffective | 
 |  | CCOC(=O)CSc1nc2c(sc3ccccc32)c(=O)n1CCCN1CCCC1 [CM037] |  | significantly reduced | significantly reduced | 
139 | 144 | Cc1nc2ccccc2n1S(=O)(=O)c1ccc(F)cc1 [CB7] |  |  |  | 
 |  | Br.N=C(N)SCc1ccc(CN2C(=O)C(=O)c3cc(C(F)(F)F)ccc32)cc1 [Compound 3h, 2-[4-(2,3-Dioxo-5-trifluoromethyl-2,3-dihydroindol-1-ylmethyl)benzyl]isothiourea hydrobromide] |  |  |  | weight loss [3]: no significant weight loss; ROS levels (HCT116 and HT29 cells; 5 μM, 24 hours, vs DMSO): significantly increased; ROS-inducing activity on addition of NAC (HCT116 and HT29 cells; with N-Acetyl Cysteine (NAC)): abrogated; increase of cell killing IC50 by addition of NAC (HCT116 cells [4]): 6 fold; percentage of cells both Annexin-V and 7-AAD positive (HCT116 cells [5]): significantly higher; cell cycle effect (HCT116 cells [6]; HCT116): G2/M arrest; cell cycle effect on addition of NAC (HCT116 cells [6]; HCT116, with NAC): reversed
 |  | CCN(CC)c1ccc(C=O)cc1 [DEAB] | 15.1 | significantly reduced | significantly reduced | IC50 (ALDH3A1; Study 1, text, read-out: IC50 ALDH3A1): 15.1 µM; reduction of UACC 903 cell survival (UACC 903 cells): 30%

— patent US20220175723A1, “METHODS AND COMPOSITIONS RELATING TO INHIBITION OF ALDEHYDE DEHYDROGENASES FOR TREATMENT OF CANCER” (THE PENN STATE RESEARCH FOUNDATION, priority 2019, published 2022)
